Assay results published in article PMC8760490, “Discovery of novel furanylbenzamide inhibitors that target oncogenic tyrosine phosphatase SHP2 in leukemia cells” (The Journal of Biological Chemistry, 2021).

Columns and labels:
[1] = test system: patient-derived AML cells; assay: Viability of patient-derived AML cells; format: cell-based, human; conditions: 10 μM; 2, 4 or 6 days in culture
Source text: (§1) Because SHP2 activity is critical for ERK activation, we used phospho-ERK1/2 (p-ERK1/2) as a more direct readout of SHP2 inhibitor efficacy. […] This p-ERK rebound in MOLM-13 cells treated with RMC-4550 is reminiscent of previously reported data from human hepatoma Hep3B cells treated with SHP099 ([34]). We also tested the effects of SBI-4668 or RMC-4550 on two patient-derived AML samples (Fig. 4F).
Patient-derived AML cells were obtained from Carol Burian and Dr James Mason (Scripps MD Anderson Center) under approved Institutional Review Board protocol 13-6180. […] Final peripheral blood mononuclear cells were resuspended in Bambanker serum-free freezing medium (Wako Pure Chemical Industries, Ltd) and stored frozen before cell viability was assessed as described later.
Viability of AML and esophageal carcinoma cells was assessed using the ATP-depletion assay CellTiter-Glo (Promega). Cells were harvested at 1 × 10^6/ml to 2 × 10^6 cells/ml with cell numbers determined by trypan blue using the Countess Cell counter (Thermo Scientific) and resuspended in culture media. […] Luminescence was read on a Tecan Spark Multimode Microplate Reader, and data were analyzed using GraphPad Prism software.

[2] = test system: phospho-ERK1/2 (p-ERK1/2) in MOLM-13 AML cells; assay: p-ERK1/2 immunoblot, MOLM-13; format: cell-based; conditions: SBI-4668 3, 10, 30 μM, RMC-4550 1 μM
Description: as §1
Cells cultured in RPMI medium were treated as indicated in the legends to the figures. Total protein extracts were prepared in modified radioimmunoprecipitation assay lysis buffer (25 mM Tris–HCl, pH 7.4, 10% glycerol, 0.2% Triton X-100, 150 mM NaCl, 2 mM Na3VO4, and 1 mM EDTA) containing a protease inhibitor cocktail (Roche Applied Science). Equal amounts of protein were separated on 4 to 12% (p-ERK1/2 blots) or 4 to 20% (SHP2 blots) Bis–Tris gels by SDS-PAGE and transferred to nitrocellulose (p-ERK1/2 blots) or 0.2 μm polyvinylidene fluoride (SHP2 blots) membranes. Membranes were blocked in 5% dry milk (Bio-Rad) in Tris-buffered saline–Tween-20 (TBS–T) (0.1% v/v) for 1 h at RT. Protein-bound membranes were incubated with indicated primary antibody overnight at 4 °C. After washing three times with TBS-T, membranes were incubated for 1 h with horseradish peroxidase–conjugated secondary antibody and then visualized by an ECL Prime detection system (GE Healthcare). Immunoblotting experiments were carried out at least three times, and representative images are shown. Densitometric quantitation of immunoblots was performed using Image Studio Lite Software (LI-COR). Changes of phosphorylated ERK1/2 to total ERK1/2 ratios are expressed as percentage of the vehicle-treated controls. The following antibodies were used: Phospho-Erk1/2 Ab (catalog no.: 9101S; Cell Signaling); total Erk1/2 Ab (catalog no.: 9102S; Cell Signaling); SHP2 Ab (catalog no.: A301-544A; lot no.: 1; Bethyl); and GAPDH (14C10) mAb (catalog no.: 2118S; lot no.: 14; Cell Signaling).

[3] = test system: mutant SHP2 (E76K) in live cells; set-up: method as in PMID 31953320, PMID 32744526; conditions: cellular thermal shift assay; cited from earlier work
MDA-MB-468 TNBC cells = assay: 11-day colony formation assay, MDA-MB-468; format: cell-based; conditions: 5, 10 or 20 μM, 11 days
Description: (§2) Inhibition of SHP2 has been reported to inhibit the growth of cancer cells including Kasumi-1 acute myeloid leukemia (AML) and KYSE-520 esophageal cancer cells ([30]). […] Thus, we treated two TNBC cell lines, BT-549 and MDA-MB-468, with SBI-4668 or the SHP2 allosteric inhibitor SHP099 at various concentrations and determined cell viability after 72 h, compared with the vehicle control (Fig. 4C). […] Next, we performed an 11-day colony formation assay with TNBC cells treated with SBI-4668 or SHP099 at 5, 10, or 20 μM (Fig. 4D).
MDA-MB-468 and […] triple-negative breast cancer cells were maintained in Dulbecco's modified Eagle's medium + 10% FBS supplemented with 1× penicillin–streptomycin/L-glutamine (Omega Scientific). About 1500 cells (in 300 μl) were seeded per well of a standard 24-well tissue culture plate (Falcon) and allowed to adhere for 24 h, before the addition of compound(s) as described. After a further 96 h, media were replaced with fresh media containing the same test compounds and concentrations. After 11 days, media were removed, and cells stained with 0.5% crystal violet (in 20% methanol; Sigma) for 20 min with agitation at 80 rpm. Stain was removed, and plates with stained cells were washed by being submerged in excess deionized water and allowed to air dry overnight before imaging.

MV4-11 AML cells = assay: Cell viability (CellTiter-Glo), MV4-11; format: cell-based; conditions: Homo sapiens, MV4-11, 72 h; 3 days in culture
Description: as §2
Viability of AML and esophageal carcinoma cells was assessed using the ATP-depletion assay CellTiter-Glo (Promega). Cells were harvested at 1 × 10^6/ml to 2 × 10^6 cells/ml with cell numbers determined by trypan blue using the Countess Cell counter (Thermo Scientific) and resuspended in culture media. About 3000 cells (in 20 μl) were seeded in a 384-well format white and clear-bottom microplate (catalog no.: 781098; Greiner) spotted with test compound or vehicle control (DMSO) using an Echo 555 Liquid Handler. Cells were incubated for 3 days, before 10 μl of CellTiter-Glo reagent mix was added to each well and incubated for 10 min at RT. Luminescence was read on a Tecan Spark Multimode Microplate Reader, and data were analyzed using GraphPad Prism software.

O=C(Nc1ccccc1)c1cc(-c2ccc(/C=C3\Sc4ccccc4C3=O)o2)ccc1O [SBI-4668, (Z)-2-Hydroxy-5-(5-((3-oxobenzo[b]thiophen-2(3H)-ylidene)methyl)furan-2-yl)-N-phenylbenzamide]
growth of two patient-derived AML samples [1]: inhibited the growth of both AML patient samples
p-ERK1/2 levels, MOLM-13, 3 h ([2]; 3 h): dose-dependently inhibits ERK1/2 activation
p-ERK1/2 levels, MOLM-13, 24 h ([2]; 24 h): dose-dependently inhibits ERK1/2 activation
cellular target engagement with mutant SHP2 [3]: direct target engagement
colony formation, MDA-MB-468 (MDA-MB-468 TNBC cells): undetectable
IC50 (MV4-11 AML cells): 8.2 µM
